Laboratory results reported in patent US8852876B2, “Label free biosensors and cells” (Corning Incorporated, priority 2008, dated 2014).

Legend:
quiescent A431 cells = assay: mβCD-induced response (cholesterol effluxing) on LID sensor; assay type: cell-based, human; settings: 20 nM EGF or 1000 nM H7; pretreated at least 40 minutes
Source text: The disclosed methods can be used to assay cholesterol transport and to, for example, screen for molecules that effect cholesterol transport, such as effluxing and uptake. […] This method is based on the measurement in real time of the effect of compounds on cholesterol effluxing. Depletion of cholesterol content on cell surface or intracellular pool results in the disappearance of microvilli located in the cell surface, resulting in the flatness of cells adherent on a surface. The flatness of cells leads to a positive DMR phase with increased signal. Based on this biological effect, we use reagents, as markers, that can either extract cholesterol from the cell surface (e.g., methyl-beta-cyclodextrin (mβCD), or high density lipoproteins (HDLs)), or bind or sequester cholesterol on the cell surface (e.g., saponin at relatively low concentrations). The changes obtained using optical biosensors can be used as an indicator of modulators that interfere with the cholesterol effuxing. FIG. 27 provides a schematic of a cholesterol pathway.

[1] = test system: actin filaments in A431 cells; assay: Texas Red-phalloidin fluorescence imaging; assay type: cell-based, human; settings: 100 nM trypsin or 40 unit/ml thrombin; ~95% confluency
Protocol: Cells were grown on Corning® Epic™ 96 well biosensor microplates, starved for overnight with serum-free DMEM medium, chased with either trypsin or thrombin for certain time, fixed with 4% paraformaldehyde, permeabilized in phosphate-buffered saline (PBS) containing 0.2% Triton, and blocked with 1% bovine serum albumin (BSA). Afterwards, cells were incubated with 0.5 μM Texas Red-labeled phalloidin for 1 h at room temperature, and washed. After final washes and mounting, cells were examined with a 40× objective, equipped in a Zeiss Axioplan fluorescence microscope.

[2] = test system: protease activated receptors PAR1 and PAR2; assay type: cell-based, human
Method in brief: (§1)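 A431 cells at passage 3-5 grown in DMEM/10% FBS at 37° C, 5% CO2 to ~95% confluency (~2-4 days). Compounds and PAR agonists prepared in 1×HBSS to match the refractive index of the cell medium for dynamic mass redistribution (DMR) read-out.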

[3] = test system: endogenous GPCRs in A431 cells; assay: DMR optical biosensor profiling of GPCR agonists; assay type: cell-based, human; settings: quiescent A431; first class = Gq-type, second = Gs-type, third = Gi-type, fourth = no significant DMR
[4] = test system: protease activated receptors PAR1 and PAR2; assay: Fluo-3 Ca2+ mobilization assay with PAR agonists; assay type: cell-based, human; settings: for Concentration required to induce a maximal response: [Ca2+]i; for Maximal [Ca2+]i elevation / EC50: quiescent A431, Fluo-3; for EC50: read-out: EC50 of [Ca2+]i increase
Protocol: A431 at passage 3 to 5 were grown in Costar™ 96 well clear cell culture microplates until ˜95% confluency, washed twice and starved overnight with the DMEM only, washed with 1×HBSS (1× regular Hank's balanced salt solution, 20 mM HEPES buffer, pH 7.0) in the presence of 2.5 mM probenicid, and labeled in the same buffer containing 4 μM Fluo-3 for 1 hour at room temperature. The cells were then washed twice with buffer, maintained with 100 μl 1×HBSS containing 2.5 mM probenicid. The assay was initiated by transferring 50 μl PAR agonist solution to the cell plate, and calcium signal was recorded over 6 minutes with a 6 sec interval using HTS7000 BioAssay Reader (PerkinElmer Life Science, Boston, Mass.). The assays were carried out at room temperature in order to allow direct comparison with optical sensing data.

A431 cells = assay: Cell adhesion and spreading on RWG biosensor; assay type: cell-based, human; settings: 100 nM; 5% FBS; room temperature
Source text: The adhesion and spreading of cells at surfaces were well studied using optical imaging techniques, as well as optical biosensors such as SPR and RWG. […] Subsequently, attached cells undergo morphological changes known as spreading—a process that the cells increase their area in contact with the surface. Both attachment and spreading are dependent on the nature of the surface and of the medium in which the cells are suspended. Since cell adhesion and spreading obviously leads to both vertical and horizontal mass redistribution within the sensing volume, we first characterized the adhesion and spreading of A431 cells in 5% FBS in the absence and presence of vincristine. Vincristine is a plant alkaoid that inhibits microtubule assembly by binding to tubulin.
We studied the adhesion and spreading of A431 cells in 5% FBS in the absence and presence of vincristine at room temperature (25° C.). […] Following the addition of cell solution, there is an immediate and rapid increased signal, which is probably resulted from three events: the increased bulk index from the addition of the cell solution, the immobilization of serum proteins onto the sensor surface, and the sedimentation of cells and subsequent contact of cells with the surface. Afterwards, a prolonged increased signal occurred, indicating the slow process of cell spreading. Ultimately a saturated level was reached. […]

[5] = molecular target: T1, protease activated receptors PAR1 and PAR2 (Homo sapiens, UniProt P55085); assay type: cell-based
T1 construct: A431 cells which endogenously express PAR1 and PAR2; endogenous in cells; host or cells: A431
T1 sequence (P55085 26-397): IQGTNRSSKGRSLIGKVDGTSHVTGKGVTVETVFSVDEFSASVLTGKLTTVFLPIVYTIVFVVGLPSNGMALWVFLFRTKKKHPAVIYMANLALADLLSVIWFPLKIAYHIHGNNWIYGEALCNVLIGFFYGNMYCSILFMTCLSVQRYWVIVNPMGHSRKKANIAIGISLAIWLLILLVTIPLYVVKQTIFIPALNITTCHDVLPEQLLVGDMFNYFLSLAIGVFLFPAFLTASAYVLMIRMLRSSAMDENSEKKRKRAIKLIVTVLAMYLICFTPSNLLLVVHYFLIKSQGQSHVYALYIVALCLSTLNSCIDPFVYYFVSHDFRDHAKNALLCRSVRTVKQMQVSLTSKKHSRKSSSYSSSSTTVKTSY
Method in brief: as §1

EGFR = molecular target: T2, EGFR (Homo sapiens, UniProt P00533); assay: EGF-induced DMR response of A431 cells on RWG optical biosensor; assay type: cell-based; settings: quiescent A431 cells
T2 construct: endogenously over-expressed EGFRs; endogenous in cells; host or cells: A431 (American Type Cell Culture)
Protocol: (§2) Both A431 and CHO-K1 cells were grown in Dulbecco's modified Eagle's medium (DMEM) supplemented with 10% fetal calf serum, 100 μg/ml penicillin, and 100 μg/ml streptomycin. For cell culture, certain numbers of cells (2×10^5 to 1×10^6), either A431 or CHO-K1, were suspended in […] medium were placed in each well of a 96 well Corning Epic Biosensor microplate, and were cultured at 37° C. in air/5% CO2 for certain time until the cell density reached ˜90% and above (unless specified). The resulted cells were termed as “profilerating” cells. The “quiescent” cells were obtained by culturing the profilerating cells of desired confluencies with a medium containing no or little (˜0.1% fetal bovine serum (FBS)) for at least 16 hours.
During the assays, the cells in 100 μl medium were subject to two 25 μl HBSS buffer containing 20 mM HEPES, pH 7.4, each separated by at least 15 minutes before 50 μl stimulus-containing solution was applied. […] For compound effect studies, a modified protocol was used which starts with 50 μl medium, and subject to sequential treatment: 25 μl HBSS buffer twice (each separated by at least 15 minutes), 50 μl compound solution and finally 50 μl stimulus-containing solution.

CHO cells = assay: EGF stimulation of CHO cells on optical biosensor (DMR); assay type: cell-based, Chinese hamster; settings: CHO cells incubated with EGF
Protocol: as §2
The cells, either proliferating or quiescent cells, were either directly used for assays or washed once with the corresponding medium (both result in no obvious difference in cell responses). During the assays, the cells in 100 μl medium were subject to two 25 μl HBSS buffer containing 20 mM HEPES, pH 7.4, each separated by at least 15 minutes before 50 μl stimulus-containing solution was applied. During all these steps, a parallel angular interrogation system was used to monitor the real time kinetics of cellular responses. […]

[6] = molecular target: T3, protease activated receptors PAR1 and PAR2 (Homo sapiens, UniProt P25116); assay type: cell-based
T3 construct: A431 cells which endogenously express PAR1 and PAR2; endogenous in cells; host or cells: A431
T3 sequence (P25116 22-425): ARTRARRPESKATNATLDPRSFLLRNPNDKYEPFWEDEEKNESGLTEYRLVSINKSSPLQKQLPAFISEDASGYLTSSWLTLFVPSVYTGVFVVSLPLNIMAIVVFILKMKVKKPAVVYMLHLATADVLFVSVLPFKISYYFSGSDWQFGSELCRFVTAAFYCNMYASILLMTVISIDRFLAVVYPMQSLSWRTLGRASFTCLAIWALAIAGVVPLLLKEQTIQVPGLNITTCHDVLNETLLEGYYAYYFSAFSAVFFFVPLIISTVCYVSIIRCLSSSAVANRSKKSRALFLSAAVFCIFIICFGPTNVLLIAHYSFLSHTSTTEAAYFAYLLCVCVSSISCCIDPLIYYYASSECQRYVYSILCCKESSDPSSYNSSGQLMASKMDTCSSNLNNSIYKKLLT
Method in brief: as §1

CC1CNCCN1S(=O)(=O)c1cccc2cnccc12 (stereo not drawn) [H7]
Effect of pretreatment on mβCD-induced response (quiescent A431 cells): led to the suppression of the mβCD-induced response

trypsin
Reorganization of actin filaments [1]: triggered significant cytoskeletal reorganization after about 10 min
Effect of preceding stimulation on DMR signal induced by PAR-APs ([2]; SFFLR-amide, GLIGKV-amide, GLIGLR-amide, interval about 1 hour): significantly suppressed the DMR signal induced by either of three PAR-APs
Effect of preceding stimulation on DMR signal induced by trypsin or thrombin ([2]; interval about 1 hour): completely eliminated the DMR signal induced by either trypsin (data not shown) or thrombin
Effect of pretreatment on DMR mediated by bradykinin ([2]; interval about 1 hour): little effect on the DMR mediated by bradykinin
Class of optical signature (DMR) induced by agonist [3]: first class of optical signatures
Concentration required to induce a maximal response [4]: 0.4 µM
Maximal [Ca2+]i elevation [4]: 100±6.3%
EC50 [4]: 45.7 ± 5.8 nM
Effect of preceding stimulation on [Ca2+]i elevation by subsequent PAR agonists ([4]; then 40 unit/ml thrombin, 20 μM SFFLR-amide, GLIGKV-amide, GLIGLR-amide or 200 nM trypsin, interval 6 min): induced almost no [Ca^2+]i elevation
Maximal [Ca2+]i elevation relative to thrombin ([4]; trypsin vs thrombin): approximately 2 fold

CC[C@]1(O)C[C@H]2CN(CCc3c([nH]c4ccccc34)[C@@](C(=O)OC)(c3cc4c(cc3OC)N(C=O)[C@H]3[C@@](O)(C(=O)OC)[C@H](OC(C)=O)[C@]5(CC)C=CCN6CC[C@]43[C@@H]65)C2)C1 [vincristine]
Effect on cell adhesion and spreading signatures (A431 cells): suppressed not only both the initial and total responses, but also reduced the kinetics of cell spreading
Reduction of total change in incident angle vs absence of compound (A431 cells): about 20%

SLIGKV [SLIGKV-amide, PAR2-AP]
DMR signal after preceding stimulation with thrombin [5]: induced the DMR signal similar to that obtained without the preceding stimulation
Effect of preceding stimulation on trypsin-induced DMR signal ([2]; interval about 1 hour): significantly suppresses but not completely eliminates the trypsin-induced DMR signal
Class of optical signature (DMR) induced by agonist [3]: first class of optical signatures
Concentration required to induce a maximal response [4]: 20 µM
Effect of preceding stimulation on trypsin-induced [Ca2+]i elevation ([4]; interval 6 min, 200 nM trypsin): significantly attenuated but not completely eliminates the trypsin-induced [Ca^2+]i elevation
Maximal [Ca2+]i elevation [4]: 52±6.3%
EC50 [4]: 3800 ± 400 nM
[Ca2+]i elevation after preceding stimulation with thrombin ([4]; thrombin 40 unit/ml first, interval 6 min): 48.5±3.8%

epidermal growth factor [EGF]
Kd (EGFR; non-linear regression, read-out: Kd from one-phase decay constant K of the N-DMR signal): 5.76 nM
EC50 (EGFR; read-out: EC50 from amplitudes of the N-DMR signals vs EGF concentration): ~1.45 nM
Effect of preceding stimulation on DMR responses mediated by trypsin or thrombin ([2]; EGF 100 nM, 100 nM trypsin, 40 unit/ml thrombin): totally blocked the N-DMR event, but only attenuated the P-DMR event
Effect of pretreatment on mβCD-induced response (quiescent A431 cells): significantly suppressed the mβCD-induced response
Effect of preceding stimulation on trypsin-mediated [Ca2+]i elevation ([4]; EGF 100 nM, trypsin 100 nM): little effect on the [Ca^2+]i elevation mediated by trypsin
DMR signals induced by EGF (CHO cells): no clear P-DMR nor B-DMR signal

YFLLRNP [PAR1 specific partial agonist]
Effect of pretreatment on PAR2-AP GLIGKV-mediated DMR signal ([5]; SLIGKV-amide 20 μM): no obvious effect on the PAR2-AP GLIGKV-mediated DMR signal
Effect of pretreatment on trypsin-mediated DMR signal ([2]; 100 or 200 nM trypsin, modulators 10 μM): only partially attenuated both SFFLR-amide and trypsin-mediated DMR
Effect of pretreatment on SFFLR-amide-mediated DMR ([2]; SFFLR-amide 20 μM, highest dose examined): only partially attenuated both SFFLR-amide and trypsin-mediated DMR
DMR signal stimulated by compound alone [6]: only at high doses stimulated significant DMR signals
[Ca2+]i elevation by compound alone ([4]; concentrations up to 160 μM): did not induce any significantly elevation of [Ca^2+]i
[Ca2+]i elevation mediated by 200 nM trypsin after pretreatment ([4]; pretreatment with 80 μM, n=5): 48.3±4.5%
